Experiments:
HIV-1 Bal = assay: Drug susceptibility assay, PM-1 cells infected with HIV-1 Bal, p24 assay readout (combinations with CCR5 inhibitors); format: cell-based; settings: for Combination Indices at % HIV Inhibition (Confidence Interval) 50%: 50% HIV inhibition; for Combination Indices at % HIV Inhibition (Confidence Interval) 50% / Combination Indices at % HIV Inhibition (Confidence Interval) 75% / Combination Indices at % HIV Inhibition (Confidence Interval) 90% / Overall Result: PM-1/HIV-1 Bal; for Combination Indices at % HIV Inhibition (Confidence Interval) 50% / Combination Indices at % HIV Inhibition (Confidence Interval) 75% / Combination Indices at % HIV Inhibition (Confidence Interval) 90%: p24, 95% CI in parenthesis; for Combination Indices at % HIV Inhibition (Confidence Interval) 75%: 75% HIV inhibition; for Combination Indices at % HIV Inhibition (Confidence Interval) 90%: 90% HIV inhibition; for EC50: single drug, PM-1 cells, HIV-1 Bal, MOI 0.005, 6 days, p24 assay (CCR5 inhibitors); for Overall Result: two-drug combination with Compound 1, all ratios and effect levels, p24 assay
Protocol: Virus and cell lines. The T-cell lines, MT-2 and PM-1 were obtained through the AIDS Research and Reference Reagent Program, NIAID, and were contributed by Dr. D. Richman and Dr. R. Gallo, respectively. Both cell lines were cultured in RPMI 1640 medium supplemented with 10% fetal bovine serum, 2 mM L-glutamine and sub-cultured twice a week. The LAI strain of HIV-1 was obtained from the Fred Hutchinson Cancer Research Center, and the Bal strain was from NIH. Both virus stocks were amplified and titered in MT-2 cells (LAI) and PM-1 cells (Bal) using a virus infectivity assay.
(§1) Drug Susceptibility and Cytotoxicity Assays. For drug susceptibility assays, MT-2 cells were infected with HIV-1 LAI (or PM-1 cells with HIV-1 Bal) at an MOI of 0.005, and seeded into 96-well microtiter plates (0.1×10^6 cells/ml) containing serial dilutions of test compounds. […] Each drug ratio consisted of an array of 3-fold serial dilutions, and was performed in quadruplicate. The plates were incubated at 37° C./5% CO2. The MT-2 cells infected with HIV-1 LAI were incubated for 5 days. On day-five post-infection, 20 μl from each well was harvested and quantitated by a reverse transcriptase (RT) assay, or in samples involving non-nucleoside RT inhibitors, an MTS assay. The PM-1 cells infected with HIV-1 Bal and used for studying the combinations with CCR5 inhibitors were incubated for six days. On day-six post-infection, 20 μl from each well was harvested, 20- and 50-fold diluted and quantitated by p24 assay. Cytotoxicity assays were performed using uninfected cells, exposed to the same drug combinations, and incubated for six days. Cell viability was determined by an XTT assay. The CC50 values were calculated by using the exponential form of the median effect equation as mentioned below for calculation of EC50.
Analysis of Drug Combination Effects. For determination of CI values, drugs were diluted in a fixed ratio and multiple ratios were analyzed. The drug serial dilutions spanned a range of concentrations near the EC50 value of each compound, so that equivalent antiviral activities could be compared. Concentration-response curves were estimated for each individual drug and every combination using the median-effect equation. The equation was fit using a nonlinear regression routine (Proc Nlin) in PC SAS version 8.01 (SAS Institute Inc., SAS Version 8.01, Cary, N.C.: SAS Institute Inc., 1990).
In this equation, Fa stands for “fraction affected,” and represents the fraction of the viral load that has been inactivated. […] ED50 is drug concentration that is expected to reduce the amount of virus by 50%, and m is a parameter that reflects the slope of the concentration-response curve.
To assess antiviral effects of different drug combination treatments, combination indices (CIs) were calculated according to Chou and Rideout. The combination index was computed as CI=[D]1/[Dm]1+[D]2/[Dm]2
In this equation [Dm]1 and [Dm]2 are the concentrations of drugs that would individually produce a specific level of effect, while [D]1 and [D]2 are the concentrations of drugs in combination that would produce the same level of effect.
Theoretically, additivity is implied if the CI is equal to one, synergy if the CI is less than one, and antagonism if the CI is greater than one. […] At best, we can construct a range that contains the likely values for the CI, given the noise in the data. In this report, these ranges are reported in parentheses next to each point estimate of the CI. […] If the range fell entirely above 1.0, we would infer antagonistic behavior. If the range were to include 1.0, we would infer additivity.
In carrying out the combination experiments below, the EC50 for Compound 1 and each comparator compound was determined during the course of each study, and used in the subsequent data analysis.

HIV-1 LAI = assay: microbe, parasite or virus in culture; settings: for Combination Indices at % HIV Inhibition (Confidence Interval) 50%: 50% HIV inhibition; for Combination Indices at % HIV Inhibition (Confidence Interval) 50% / Combination Indices at % HIV Inhibition (Confidence Interval) 75% / Combination Indices at % HIV Inhibition (Confidence Interval) 90%: 95% CI in parenthesis; for Combination Indices at % HIV Inhibition (Confidence Interval) 75%: 75% HIV inhibition; for Combination Indices at % HIV Inhibition (Confidence Interval) 90%: 90% HIV inhibition
uninfected cells = assay: Cytotoxicity assay of drug combinations, uninfected cells, XTT assay; format: cell-based; settings: combination with Compound 1 at the highest concentrations tested, 6 days
Protocol: as §1, with “Assays.” for “Assays. For drug susceptibility assays, MT-2 cells were infected with HIV-1 LAI (or PM-1 cells with HIV-1 Bal) at an MOI of 0.005, and seeded into 96-well microtiter plates (0.1×10^6 cells/ml) containing serial dilutions of test compounds.”, “The MT-2 cells infected with HIV-1 LAI were incubated for 5 days.” left out

[1] = combination with Compound 1, EC50 ratio 1:1
[2] = combination with Compound 1, EC50 ratio 1:2.5
[3] = combination with Compound 1, EC50 ratio 2.5:1
[4] = combination with Compound 1, EC50 ratio 1:1 (Compound 1:comparator)

Row | Molecule | Combination Indices at % HIV Inhibition (Confidence Interval) 50% (HIV-1 Bal; [1]) | Combination Indices at % HIV Inhibition (Confidence Interval) 75% (HIV-1 Bal; [1]) | Combination Indices at % HIV Inhibition (Confidence Interval) 90% (HIV-1 Bal; [1]) | Combination Indices at % HIV Inhibition (Confidence Interval) 50% (HIV-1 Bal; [2]) | Combination Indices at % HIV Inhibition (Confidence Interval) 75% (HIV-1 Bal; [2]) | Combination Indices at % HIV Inhibition (Confidence Interval) 90% (HIV-1 Bal; [2]) | Combination Indices at % HIV Inhibition (Confidence Interval) 50% (HIV-1 Bal; [3]) | Combination Indices at % HIV Inhibition (Confidence Interval) 75% (HIV-1 Bal; [3]) | Combination Indices at % HIV Inhibition (Confidence Interval) 90% (HIV-1 Bal; [3]) | EC50 (HIV-1 Bal) [nM] | Overall Result (HIV-1 Bal) | Combination Indices at % HIV Inhibition (Confidence Interval) 50% (HIV-1 LAI; [4]) | Combination Indices at % HIV Inhibition (Confidence Interval) 75% (HIV-1 LAI; [1]) | Combination Indices at % HIV Inhibition (Confidence Interval) 90% (HIV-1 LAI; [1]) | Combination Indices at % HIV Inhibition (Confidence Interval) 50% (HIV-1 LAI; [2]) | Combination Indices at % HIV Inhibition (Confidence Interval) 75% (HIV-1 LAI; [2]) | Combination Indices at % HIV Inhibition (Confidence Interval) 90% (HIV-1 LAI; [2]) | Combination Indices at % HIV Inhibition (Confidence Interval) 50% (HIV-1 LAI; [3]) | Combination Indices at % HIV Inhibition (Confidence Interval) 75% (HIV-1 LAI; [3]) | Combination Indices at % HIV Inhibition (Confidence Interval) 90% (HIV-1 LAI; [3]) | other results
1 | CCO/N=C(\c1ccc(Br)cc1)C1CCN(C2(C)CCN(C(=O)c3c(C)cc[n+]([O-])c3C)CC2)CC1 [Sch-C] | 0.63 (0.51, 0.74) | 0.70 (0.52, 0.89) | 0.80 (0.46, 1.13) | 0.49 (0.41, 0.58) | 0.65 (0.49, 0.80) | 0.86 (0.52, 1.19) | 0.24 (0.19, 0.28) | 0.36 (0.27, 0.45) | 0.55 (0.31, 0.79) | 3 | moderate synergistic to synergistic | – | – | – | – | – | – | – | – | – | –
2 | CON(Cc1ccc(F)cc1)C(=O)C=C(O)C(=O)O [Compound 2, 3-[(4-fluorobenzyl)methoxycarbamoyl]-2-hydroxyacrylic acid] | – | – | – | – | – | – | – | – | – | – | – | 0.92 (0.77, 1.06) | 0.90 (0.70, 1.10) | 0.89 (0.58, 1.21) | 0.71 (0.60, 0.82) | 0.66 (0.51, 0.80) | 0.61 (0.40, 0.82) | 0.41 (0.36, 0.47) | 0.41 (0.33, 0.48) | 0.40 (0.28, 0.52) | EC50 (HIV-1 LAI; Human immunodeficiency virus 1, MT2, 120 h): 39 nM; cytotoxicity of the drug combination (uninfected cells): No significant cytotoxicity
3 | COC[C@@H](c1ccc(C(F)(F)F)cc1)N1CCN(C2(C)CCN(C(=O)c3c(C)ncnc3C)CC2)C[C@@H]1C [Sch-D] | 0.49 (0.43, 0.55) | 0.41 (0.34, 0.49) | 0.36 (0.26, 0.46) | 0.71 (0.62, 0.81) | 0.55 (0.44, 0.65) | 0.44 (0.31, 0.57) | 0.51 (0.45, 0.56) | 0.55 (0.47, 0.63) | 0.61 (0.46, 0.75) | 0.5 | moderate synergistic to synergistic | – | – | – | – | – | – | – | – | – | –
4 | enfuvirtide | – | – | – | – | – | – | – | – | – | – | – | 0.53 (0.46, 0.59) | 0.51 (0.42, 0.59) | 0.57 (0.42, 0.72) | 0.27 (0.21, 0.32) | 0.32 (0.22, 0.42) | 0.43 (0.22, 0.64) | 0.41 (0.30, 0.51) | 0.57 (0.37, 0.78) | 0.90 (0.36, 1.44) | EC50 (HIV-1 LAI; single drug, MT-2 cells, HIV-1 LAI, MOI 0.005, 5 days, RT assay): 3 nM; cytotoxicity of the drug combination (uninfected cells): No significant cytotoxicity

— patent US20050215543A1, “Methods of treating HIV infection” (priority 2004, published 2005)
